Reference: patent US5543147A, “Crystalline modification of 2,4-dioxo-6-methyl-1,2,3,4-tetrahydropyrimidine, a method for the preparation thereof and a medicinal preparation based on it” (Leonidov; Nikolai B., priority 1994, dated 1996)
Like-named read-outs stand apart in the source and are kept apart here.

Legend:
eyes = test: safety of long-term subconjunctival inoculations (2-month toxicological experiment); format: in vivo, white rats and chinchilla rabbits
Procedure: The study on the safety of long-term subconjunctival inoculations of the claimed modification in comparison with the known form of the said compound was carried out in a 2-month-long toxicological experiment in 148 mature male and female white rats and 49 male and female chinchilla rabbits.
Male rats and rabbits were given subconjunctivally I drop each of 2%, 25% and 50% suspension of the claimed modification of the said compound into each eye once daily. The results obtained were compared with those in a group of male rats and rabbits given one drop of 2% suspension of the known form of the said compound into the eye. Besides, a 2% suspension of the claimed modification of the said compound was given to a group of female rats and rabbits which were compared with the control group. In a separate series of experiments in the same animals (rats, rabbits) carried out by the same schedule of a chronic experiment, the effect of the claimed pharmaceutical in the form of an eye ointment containing as the active substance the claimed modification of the said compound was determined. The results of this study confirm the data obtained in the studies of the effect of the claimed compound. Comparisons with the pharmaceutical containing the known form of the said compound gave analogous results.

[1] = rate of dissolution of the active substance (rotary basket); format: physicochemical; conditions: water for injections 1000 ml, 37±1° C, 50 rpm, 0.25 g, 0 to 45 min
Procedure: The rate of dissolution of the active substance is determined in a "rotary basket" type DT-D6 apparatus (Erweka Co, BRD) at a mixing rate of 50 rpm. The dissolving medium is water for injections in a volume of 1000 ml at a temperature of 37±1° C. The content of the active substance in the solution is determined spectrophotometrically in a spectrophotometr No. 75 (Perkin-Elmer Co) at a wave length of 259 nm. For comparison, the known crystalline form of the said compound is used under identical conditions. The parameter for comparison is the constant of dissolution rate based on the mean results of the compound transition into solution from the amount thereof used (0.25 g) in the time of 0 to 45 min. The water for injections is used as a control.

plane multilayer wounds = test: wound-healing activity, plane multilayer wounds in rats; format: in vivo, random-bred white male rats; conditions: for Rate of healing at 7 days / Rate of healing at 10 days / Rate of healing at 15 days / Mean time of falling off of crusts / Mean time of healing / Speeding up of healing: claimed 0.25% solution, known 1% solution in 0.9% aqueous NaCl
Procedure: (§1) The tests were carried out in 2 groups of 41 random-bred white male rats weighing 200±10 g. The experimental model in the 1st group were linear wounds of 50 mm long inflicted on the backs of the rats. Depending on the crystalline form of the tested compound used the rats were divided into 3 series. The first series was control--the wounds were pricked once daily with 0.9% aqueous solution of sodium chloride (0.5 ml) for 3 days. In the 2nd series the wounds were pricked by the same method with 1% solution of the known crystalline form of the said compound in 0.9% aqueous solution of sodium chloride. In the 3rd series the wounds were pricked by the same method with 0.25% solution of the claimed compound in 0.9% aqueous solution of sodium chloride.
Plane multilayer wounds of 400 mm^2 in area inflicted on the backs of rats were an experimental model in the 2nd group of experiments. The animals were also divided into 3 series. Here, the pricking of the wound was done by the same schedule as in the 1st group. The parameters of the wound process in the time course at 7, 10 and 15 days after wound inflicting were assessed by the methods of tensiometry, planimetry and clinical observations. The time of falling off of crusts and complete healing of the wounds was determined. The rate of the wound area decrease (V) in the course of healing was calculated by the formula [formula] wherein So is the initial wound area, mm^2,
St the wound area on the day of measurement t, mm^2.
(§2) The results of trials of the wound-healing activity of the claimed and the known crystalline forms of the said compound were statistically treated with the confidence limit of 95%.

acute toxicity = format: in vivo, random-bred white mice, rats, and chinchilla rabbits
Procedure: (§3) Trials of the toxicity of the claimed crystalline modification of the said compound were carried out comparing it with the known crystalline form of the said compound.
(§4) Investigations of the general toxic effect of the claimed crystalline modification of 2,4-dioxo-6-methyl-1,2,3,4-tetrahydropyrimidine and the known crystalline form of the said compound were carried out in 3 […] species (random-bred white mice, rats, and chinchilla rabbits).

linear wounds = test: wound-healing activity, model of linear wounds in rats (scar strength); format: in vivo, random-bred white male rats; conditions: for Strength of the scar: wounds pricked once daily for 3 days; for Strength of the scar / Increase of the scar strength as compared with control: claimed 0.25% solution, known 1% solution in 0.9% aqueous NaCl
Procedure: as §1, §2

wounds = test: preliminary experiments on the wound-healing effect; format: in vivo
[2] = system: allergenic and immunotoxic properties; test: studies of the allergenic and immunotoxic properties
subacute toxicity = format: in vivo, random-bred white mice, rats, and chinchilla rabbits; conditions: subacute routes of inoculation
Procedure: as §3, §4

[3] = solubility of the crystalline powder; format: physicochemical
[4] = prior-art description, cited from earlier work

SMILES: Cc1cc(O)nc(O)n1 [claimed modification, 2,4-dioxo-6-methyl-1,2,3,4-tetrahydropyrimidine]
- microscopic changes in the eye (eyes; large doses): lymphoid infiltrates were formed in the ciliary body, iris, and sometimes in the initial parts of the optic nerve, but these changes were reversible
- macroscopic local inflammatory reactions of the eyes (eyes; long-term administration): no macroscopic local inflammatory reactions of the eyes
- constant of the dissolution rate K [1]: 0.025 min⁻¹
- shortening of time of complete healing of plane wounds as compared with the control (plane multilayer wounds): 26.2%
- shortening of time of complete healing of plane wounds as compared with the known form of the compound (plane multilayer wounds; 0.25% vs 1% solution): 12%
- Rate of healing at 7 days (plane multilayer wounds): 61.6 ± 6.3%
- Rate of healing at 10 days (plane multilayer wounds): 89.0 ± 4.9%
- Rate of healing at 15 days (plane multilayer wounds): 95.4 ± 3.8%
- Mean time of falling off of crusts (plane multilayer wounds): 8.6 ± 0.7 days
- Mean time of healing (plane multilayer wounds): 17.7 ± 1.6 days
- Speeding up of healing (plane multilayer wounds): 26.2%
- class of toxicity (acute toxicity) (acute toxicity): Vth class of toxicity (practically non-toxic compounds)
- class of toxicity (acute toxicity, intraperitoneal route) (acute toxicity; intraperitoneal): VI class of relatively harmless compounds
- mean lethal dose (acute toxicity; subconjunctival route): could not be established
- increase of rupture strength of linear wounds as compared with the control (linear wounds; 7 days): 90.4%
- increase of rupture strength of linear wounds as compared with the known form of the compound (linear wounds; 7 days, 0.25% vs 1% solution): 43%
- Strength of the scar (linear wounds; 7 days): 57.3 ± 9.0 g/mm^2
- Increase of the scar strength as compared with control (linear wounds): 90.4
- concentration of solution at which significant (comparable) wound-healing effect was manifested (wounds): 0.25 % by weight
- formation of the tumor necrosis factor [2]: not to be conducive to the formation of the tumor necrosis factor
- functional activity of the B-cell immunity [2]: no effect on the functional activity of the B-cell immunity
- functional activity of the Te-cell immunity [2]: not to inhibit the functional activity of the Te-cell immunity
- specific leukocyte lysis [2]: no specific leukocyte lysis
- specific reaction of leukocyte agglomeration [2]: no specific reaction of leukocyte agglomeration
- allergenic and immunotoxic properties ([2]; overall): no allergenic and immunotoxic properties
- cumulative effect (subacute toxicity): weak
- solubility in chloroform ([3]; chloroform): practically insoluble
- solubility in ethyl alcohol ([3]; ethyl alcohol): poorly soluble
- solubility in ethyl ether ([3]; ethyl ether): practically insoluble
- solubility in water ([3]; water): poorly soluble

SMILES: Cc1cc(O)nc(O)n1 [known form, 2,4-dioxo-6-methyl-1,2,3,4-tetrahydropyrimidine]
- constant of the dissolution rate K [1]: 0.18 min⁻¹
- Rate of healing at 7 days (plane multilayer wounds): 57.5 ± 8.3%
- Rate of healing at 10 days (plane multilayer wounds): 80.2 ± 2.0%
- Rate of healing at 15 days (plane multilayer wounds): 90.2 ± 2.8%
- Mean time of falling off of crusts (plane multilayer wounds): 9.6 ± 0.5 days
- Mean time of healing (plane multilayer wounds): 18.4 ± 1.6 days
- Speeding up of healing (plane multilayer wounds): 23.3%
- class of toxicity (acute toxicity) (acute toxicity): slightly higher toxicity, although they belong to the same group
- Strength of the scar (linear wounds; 7 days): 40.1 ± 5.0 g/mm^2
- Increase of the scar strength as compared with control (linear wounds): 33.2
- concentration of solution at which significant (comparable) wound-healing effect was manifested (wounds): 1 % by weight
- solubility in chloroform ([4]; chloroform): insoluble
- solubility in ether ([4]; ether): insoluble
- solubility in ethyl alcohol ([4]; ethyl alcohol): poorly soluble
- solubility in water ([4]; water): poorly soluble
